System: patients with chronic constipation
Test: Clinical trial, primary efficacy: mean increase of 1 or more CSBM/week over baseline after 4 weeks of treatment (responders), by subgroup and genotype
Assay type: in vivo, human
Conditions: for % Responders: 6-mg bid
Protocol: Introduction. A clinical trial was performed to evaluate the efficacy of tegaserod (Zelmac®/Zelnorm™) at 6 mg bid (12 mg/day) or 2 mg bid (4 mg/day) vs. placebo by measuring the number of complete spontaneous bowel movements (CSBM) during the first 4 weeks of treatment. Secondary objectives included evaluating the number of CSBM during the entire 12-week treatment period, bowel habits, laxative use, and safety and tolerability issues. The clinical trial design consisted of a 2-week baseline period without medication, a 12-week, randomized, double-blind, placebo-controlled treatment period, and a 4-week withdrawal period without study medication. As part of the clinical trial, DNA was collected from patients at screening for pharmacogenetic analysis to evaluate genetic polymorphisms relating to drug targets and disease aetiology.
Samples. A total 1348 patients were randomized as the intent-to-treat (ITT) population. Blood samples from these patients were collected at the time of patient screening and DNA was extracted using the PUREGENE™ DNA Isolation Kit (D-50K). Of these, samples from 738 randomized patients had good quality genotype data for at least half of the 55 SNPs evaluated.
Clinical assessments. […] The primary efficacy endpoint evaluated was the increase of 1 or more CSBM/week over baseline after 4 weeks of treatment. A secondary endpoint evaluated in this genotyping study was RESP12, the increase of 1 of more CSBM/week over baseline after 12 weeks of treatment. Patients were classified as responders if they met these criteria and had completed at least 7 days of treatment. Additional secondary efficacy assessments were evaluated based on the weekly diary assessments, such as bothersome constipation, bothersome abdominal pain, and satisfaction with bowel habits at the end of the 12-week treatment period (using the baseline value as a co-variant for analysis).
Genotyping. A total of 61 polymorphisms in 23 candidate genes were selected for analysis. Genotyping was performed using the TaqMan® technology for most of the assays, while a few were performed in-house using the Third Wave Technologies Invader Assay technique (see TABLE 2 for assay IDs for all evaluated SNPs). Of the 61 SNPs genotyped, 55 yielded good quality, polymorphic genotypes for use in further evaluation.
Statistical analysis. Statistical analysis was performed using SAS version 8.2 (The SAS Institute, Cary, N.C., USA). Analysis methods included Fisher's Exact tests, analysis of Covariance (ANCOVA), logistic regression, and Mantel-Haenzel tests to determine odds ratios and 95% confidence intervals, with significance established at p<0.05. Calculation of linkage disequilibrium was performed using the GOLD (graphical overview of linkage disequilibrium) method described by Abecasis & Cookson, Bioinformatics 16: 182-3 (2000).
Demographic comparisons. TABLE 3 presents the demographic breakdown of the patients in the overall clinical study and those included in this genotype analysis. Distributions were similar between the genotype population and the total patient population. […] Based on these findings, it was decided to limit analysis to the Caucasian population, which accounted for nearly 90% of all patients, to prevent a confounding effect of race on subsequent genotype analyses. Furthermore, the analysis was also limited to those intent-to-treat patients that were treated with tegaserod or placebo for at least 7 days (total of 635 patients).
Comparison of overall response rates. TABLE 4 presents the overall response for the primary efficacy endpoint (a mean increase in 1 or more CSBM/week over baseline after 4 weeks) for tegaserod 6-mg bid compared with placebo for both the overall patient population and the subgroup of patients for which we had genotype data (all races and Caucasians only). […]

In the case of [H]/N=C(/NCCCCC)N/N=C/c1c[nH]c2ccc(OC)cc12 [tegaserod, Tegaserod], the “% Responders” value (4 weeks, All Caucasians (ITT, >=7 days), Age <65, M + F) is reported as 46%, the “% Responders” value (4 weeks, All Caucasians (ITT, >=7 days), Age >=65, M + F) is reported as 33% and the “% Responders” value (4 weeks, All Caucasians (ITT, >=7 days), Age All, Female) is reported as 46%. For the same compound, the “% Responders” value (4 weeks, All Caucasians (ITT, >=7 days), Age All, M + F) was 45%, the “% Responders” value (4 weeks, All Caucasians (ITT, >=7 days), Age All, Male) was 37% and the “% Responders” value (4 weeks, All genotyped (ITT, >=7 days), Age <65, M + F) was 45%. The “% Responders” value (4 weeks, All genotyped (ITT, >=7 days), Age >=65, M + F) was 50%, the “% Responders” value (4 weeks, All genotyped (ITT, >=7 days), Age All, Female) was 45% and the “% Responders” value (4 weeks, All genotyped (ITT, >=7 days), Age All, M + F) was 46%. The “% Responders” value (4 weeks, All genotyped (ITT, >=7 days), Age All, Male) was 48%, the “% Responders” value (4 weeks, All patients (ITT, >=7 days), Age <65, M + F) was 45% and the “% Responders” value (4 weeks, All patients (ITT, >=7 days), Age >=65, M + F) was 35%. For the same compound, the “% Responders” value (4 weeks, All patients (ITT, >=7 days), Age All, Female) was 45%, the “% Responders” value (4 weeks, All patients (ITT, >=7 days), Age All, M + F) was 44% and the “% Responders” value (4 weeks, All patients (ITT, >=7 days), Age All, Male) was 36%. For the same compound, the “% Responders” value (4 weeks, Caucasians genotyped (ITT, >=7 days), Age <65, M + F, all genotypes) was 46%, the “% Responders” value (4 weeks, Caucasians genotyped (ITT, >=7 days), Age >=65, M + F, all genotypes) was 47% and the “% Responders” value (4 weeks, Caucasians genotyped (ITT, >=7 days), Age All, Female, all genotypes) was 45%. The “% Responders” value (4 weeks, Caucasians genotyped (ITT, >=7 days), Age All, M + F, all genotypes) was 46%, the “% Responders” value (4 weeks, Caucasians genotyped (ITT, >=7 days), Age All, Male, all genotypes) was 52% and the “% Responders” value (4 weeks, ITT Caucasians >=7 days, 0 of 14 SNPs) was 32%. The “% Responders” value (4 weeks, ITT Caucasians >=7 days, >=1 of 14 SNPs) was 53%, the “% Responders” value (4 weeks, ITT Caucasians >=7 days, AQP3 (PG ID 1838) genotype CC) was 43% and the “% Responders” value (4 weeks, ITT Caucasians >=7 days, AQP3 (PG ID 1838) genotype CG) was 47%. For the same compound, the “% Responders” value (4 weeks, ITT Caucasians >=7 days, AQP3 (PG ID 1838) genotype GG) was 71%, the “% Responders” value (4 weeks, ITT Caucasians >=7 days, Female (All ages), 0 of the 12 SNPs) was 33% and the “% Responders” value (4 weeks, ITT Caucasians >=7 days, Female (All ages), 1-12 of the 12 SNPs) was 59%. The “% Responders” value (4 weeks, ITT Caucasians >=7 days, HTR3B (PG ID 3755) genotype AA) was 46%, the “% Responders” value (4 weeks, ITT Caucasians >=7 days, HTR3B (PG ID 3755) genotype AC) was 44% and the “% Responders” value (4 weeks, ITT Caucasians >=7 days, HTR3B (PG ID 3755) genotype CC) was 67%. The “% Responders” value (4 weeks, ITT Caucasians >=7 days, HTR4 (PG ID 1746) genotype CC) was 42%, the “% Responders” value (4 weeks, ITT Caucasians >=7 days, HTR4 (PG ID 1746) genotype CT) was 44% and the “% Responders” value (4 weeks, ITT Caucasians >=7 days, HTR4 (PG ID 1746) genotype TT) was 75%. For the same compound, the “% Responders” value (4 weeks, ITT Caucasians >=7 days, HTR4 (PG ID 3743) genotype AA) was 43%, the “% Responders” value (4 weeks, ITT Caucasians >=7 days, HTR4 (PG ID 3743) genotype AC) was 46% and the “% Responders” value (4 weeks, ITT Caucasians >=7 days, HTR4 (PG ID 3743) genotype CC) was 78%. The “% Responders” value (4 weeks, ITT Caucasians >=7 days, HTR4 (PG ID 3747) genotype AA) was 43%, the “% Responders” value (4 weeks, ITT Caucasians >=7 days, HTR4 (PG ID 3747) genotype AT) was 45% and the “% Responders” value (4 weeks, ITT Caucasians >=7 days, HTR4 (PG ID 3747) genotype TT) was 70%. The “% Responders” value (4 weeks, ITT Caucasians >=7 days, HTR4 (PG ID 3753) genotype CC) was 43%, the “% Responders” value (4 weeks, ITT Caucasians >=7 days, HTR4 (PG ID 3753) genotype CT) was 44% and the “% Responders” value (4 weeks, ITT Caucasians >=7 days, HTR4 (PG ID 3753) genotype TT) was 75%. The “% Responders” value (4 weeks, ITT Caucasians >=7 days, HTR4 (PG ID 3754) genotype AA) was 46%, the “% Responders” value (4 weeks, ITT Caucasians >=7 days, HTR4 (PG ID 3754) genotype AT) was 42% and the “% Responders” value (4 weeks, ITT Caucasians >=7 days, HTR4 (PG ID 3754) genotype TT) was 67%. For the same compound, the “% Responders” value (4 weeks, ITT Caucasians >=7 days, HTR4 (PG ID 3756) genotype AA) was 39%, the “% Responders” value (4 weeks, ITT Caucasians >=7 days, HTR4 (PG ID 3756) genotype AC) was 46% and the “% Responders” value (4 weeks, ITT Caucasians >=7 days, HTR4 (PG ID 3756) genotype CC) was 71%. The “% Responders” value (4 weeks, ITT Caucasians >=7 days, M + F (<65), 0 of the 12 SNPs) was 33%, the “% Responders” value (4 weeks, ITT Caucasians >=7 days, M + F (<65), 1-12 of the 12 SNPs) was 61% and the “% Responders” value (4 weeks, ITT Caucasians >=7 days, M + F (>=65), 0 of the 12 SNPs) was 14%. The “% Responders” value (4 weeks, ITT Caucasians >=7 days, M + F (>=65), 1-12 of the 12 SNPs) was 70%, the “% Responders” value (4 weeks, ITT Caucasians >=7 days, M + F (All ages), 0 of the 12 high responder SNPs) was 31% and the “% Responders” value (4 weeks, ITT Caucasians >=7 days, M + F (All ages), 1-12 of the 12 high responder SNPs) was 62%. The “% Responders” value (4 weeks, ITT Caucasians >=7 days, MLN (PG ID 1783) genotype CC) was 47%, the “% Responders” value (4 weeks, ITT Caucasians >=7 days, MLN (PG ID 1783) genotype CT) was 40% and the “% Responders” value (4 weeks, ITT Caucasians >=7 days, MLN (PG ID 1783) genotype TT) was 63%. For the same compound, the “% Responders” value (4 weeks, ITT Caucasians >=7 days, Male (All ages), 0 of the 12 SNPs) was 20%, the “% Responders” value (4 weeks, ITT Caucasians >=7 days, Male (All ages), 1-12 of the 12 SNPs) was 82% and the “% Responders” value (4 weeks, ITT Caucasians >=7 days, SCNN1A (PG ID 3806) genotype GG) was 62%. The “% Responders” value (4 weeks, ITT Caucasians >=7 days, SCNN1A (PG ID 3806) genotype GT) was 47%, the “% Responders” value (4 weeks, ITT Caucasians >=7 days, SCNN1A (PG ID 3806) genotype TT) was 36% and the “% Responders” value (4 weeks, ITT Caucasians >=7 days, SLC12A2 (PG ID 1842) genotype AA) was 69%. For the same compound, the “% Responders” value (4 weeks, ITT Caucasians >=7 days, SLC12A2 (PG ID 1842) genotype AG) was 27%, the “% Responders” value (4 weeks, ITT Caucasians >=7 days, SLC12A2 (PG ID 1842) genotype GG) was 51% and the “% Responders” value (4 weeks, ITT Caucasians >=7 days, SLC12A2 (PG ID 3801) genotype CC) was 75%. The “% Responders” value (4 weeks, ITT Caucasians >=7 days, SLC12A2 (PG ID 3801) genotype CT) was 27%, the “% Responders” value (4 weeks, ITT Caucasians >=7 days, SLC12A2 (PG ID 3801) genotype TT) was 52% and the “% Responders” value (4 weeks, ITT Caucasians >=7 days, TPH1 (PG ID 1756) genotype GG) was 51%. The “% Responders” value (4 weeks, ITT Caucasians >=7 days, TPH1 (PG ID 1756) genotype GT) was 48%, the “% Responders” value (4 weeks, ITT Caucasians >=7 days, TPH1 (PG ID 1756) genotype TT) was 36% and the “% Responders” value (4 weeks, ITT Caucasians >=7 days, TPH1 (PG ID 3784) genotype CC) was 32%. The “% Responders” value (4 weeks, ITT Caucasians >=7 days, TPH1 (PG ID 3784) genotype CT) was 49%, the “% Responders” value (4 weeks, ITT Caucasians >=7 days, TPH1 (PG ID 3784) genotype TT) was 50% and the rate of response (lower dose 2-mg bid, 4 weeks, compared with placebo and with 6-mg bid) was “the response was less than that seen for the 6-mg bid dose”. The Odds Ratio (the two other genotyped SCNN1A SNPs (near 5' end and near 3' end)) was > 3.5.

— US20090118350A1, “Biomarkers for Identifying Efficacy of Tegaserod in Patients with Chronic Constipation” (priority 2005, published 2009)
